{"source": "patent US6841566B2", "about": "“Viral polymerase inhibitors” (Boehringer Ingelheim, Ltd., priority 2001, dated 2005)"}
{"tested_on": "Huh7 cells that stably maintain a subgenomic HCV replicon (S22.3 cell-line)", "assay": "Cell based HCV RNA replication assay (S22.3 replicon cells, real-time RT-PCR)", "settings": "Hepatitis C virus, Huh-7, 72 hours", "protocol": "Huh7 cells that stably maintain a subgenomic HCV replicon were established as previously described (Lohman et al., 1999. Science 285: 110-113) and designated as the S22.3 cell-line. S22.3 cells were maintained in Dulbecco's Modified […] Medium (DMEM) supplemented with 10% FBS and 0.5 mg/mL neomycin (Standard Medium). During the assay, DMEM medium supplemented with 10% FBS, containing 0.5% DMSO and lacking neomycin was used (Assay Medium). 16 hours prior to compound addition, S22.3 cells are trypsinized and diluted to 100 000 cells/ml in Standard Medium. 100μL (10 000 cells) are distributed into each well of a 96-well plate. The plate was then incubated at 37° C. with 5% CO2 until the next day.\n10 μL of test compound (in 100% DMSO) was added to 2 ml of Assay Medium for a final DMSO concentration of 0.5% and the solution was sonicated for 15 min and filtered through a […] Millipore Filter Unit. 900 μl was transferred into row A of a Polypropylene Deep-Well Titer Plate. Rows B to H, contain 400 μL aliquots of Assay Medium (containing 0.5% DMSO), and were used to prepare serial dilutions (1/2) by transferring 400 μl from row to row (no compound was included in row H).\nCell culture medium was aspirated from the 96-well plate containing the S22.3 cells. 175 μL of assay medium with the appropriate dilution of test compound was transferred from each well of the compound plate to the corresponding well of the cell culture plate (row H was used as the “No inhibition control”). The cell culture plate was incubated at 37° C. with 5% CO2 for 72 hours.\nFollowing the 72 hour incubation period, the total cellular RNA was extracted from the S22.3 cells of the 96-well plate using the RNeasy 96 kit (Qiagen®, RNeasy Handbook. 1999.). Briefly, assay medium was completely removed from cells and 100 μL of RLT buffer (Qiagen®) containing 143 mM β-mercaptoethanol was added to each well of the 96-well cell-culture plate. The microplate was gently shaken for 20 sec. 100 μL of 70% ethanol was then added to each microplate well, and mixed by pipetting. The lysate was removed and applied to the wells of a RNeasy 96 (Qiagen®) plate that was placed on top of a Qiagen® Square-Well Block. The RNeasy 96 plate was sealed with tape and the Square-Well Block with the RNeasy 96 plate was loaded into the holder and placed in a rotor bucket of a 4K15C centrifuge. The sample was centrifuged at 6000 rpm (˜5600×g) for 4 min at room temperature. The tape was removed from the plate and 0.8 ml of Buffer RW1 (Qiagen® RNeasy 96 kit) was added to each well of the RNeasy 96 plate. The RNeasy 96 plate was sealed with a new piece of tape and centrifuged at 6000 rpm for 4 min at room temperature. The RNeasy 96 plate was placed on top of another clean Square-Well Block, the tape removed and 0.8 ml of Buffer RPE (Qiagen® RNeasy 96 kit) was added to each well of the RNeasy 96 plate. The RNeasy 96 plate was sealed with a new piece of tape and centrifuged at 6000 rpm for 4 min at room temperature. The tape was removed and another 0.8 ml of Buffer RPE (Qiagen® RNeasy 96 kit) was added to each well of the RNeasy 96 plate. The RNeasy 96 plate was sealed with a new piece of tape and centrifuged at 6000 rpm for 10 min at room temperature. Tape was removed, the RNeasy 96 plate was placed on top of a rack containing 1.2-mL collection microtubes. The RNA was eluted by adding 50 μL of RNase-free water to each well, sealing plate with a new piece of tape and incubated for 1 min at room temperature. The plate was then centrifuged at 6000 rpm for 4 min at room temperature. The elution step was repeated with a second volume of 50 μl RNase-free water. The microtubes with total cellular RNA are stored at −70° C.\nRNA was quantified on the STORM® system (Molecular Dynamics®) using the RiboGreen® RNA Quantification Kit (Molecular Probes®). Briefly, the RiboGreen reagent was diluted 200-fold in TE (10 mM Tris-HCl pH=7.5, 1 mM EDTA). Generally, 50 μL of reagent was diluted in 10 mL TE. […]", "units": {"EC50": "µM"}}
{"smiles": "C[C@@H](NC(=O)c1ccc2c(c1)nc(-c1ccccn1)n2C1CCCCC1)C(=O)Nc1ccc(/C=C/C(=O)O)cc1", "note": "[compound 2002]", "EC50": "≤ 5"}
{"smiles": "O=C(O)/C=C/c1ccc(NC(=O)C2(NC(=O)c3ccc4c(c3)nc(-c3ccccn3)n4C3CCCC3)CCCC2)cc1", "note": "[compound 2012]", "EC50": "5 to 50"}
{"smiles": "C[C@@H](NC(=O)c1ccc2c(c1)nc(-c1ccccc1)n2C1CCCCC1)C(=O)Nc1ccc(/C=C/C(=O)O)cc1", "note": "[compound 2003]", "EC50": "5 to 50"}
{"smiles": "CC1CCCC(C)C1n1c(-c2ccco2)nc2cc(C(=O)NC3(C(=O)Nc4ccc(C=CC(=O)O)cc4)CCCC3)ccc21", "note": "(mixture of isomers) [compound 2033]", "EC50": "≤ 5"}
{"smiles": "CCn1c(C(=O)O)cc2cc(NC(=O)C3(NC(=O)c4ccc5c(c4)nc(-c4ccoc4)n5C4CCCCC4)CCCC3)ccc21", "note": "[compound 1085]", "EC50": "≤ 5"}
{"smiles": "O=C(O)/C=C/c1ccc(NC(=O)C2(NC(=O)c3ccc4c(c3)nc(-c3ccoc3)n4C3CCCCC3)CC2)cc1", "note": "[compound 1070, (E)-3-(4-{[1-(1-{[1-(1-Cyclohexyl-2-furan-3-yl-1H-benzoimidazol-5-yl)-methanoyl]-amino}-cyclopropyl)-methanoyl]-amino}-phenyl)-acrylic acid]", "EC50": "5 to 50"}
{"smiles": "C[C@H](NC(=O)c1ccc2c(c1)nc(-c1ccoc1)n2C1CCCCC1)C(=O)Nc1ccc(/C=C/C(=O)O)cc1", "note": "[compound 1056]", "EC50": "5 to 50"}
{"smiles": "CCC[C@@H](NC(=O)c1ccc2c(c1)nc(-c1ccoc1)n2C1CCCCC1)C(=O)Nc1ccc(/C=C/C(=O)O)cc1", "note": "[compound 1076]", "EC50": "≤ 5"}
